# Experimental data published in article PMC4184574, “Enantioselectivity in the cytochrome P450-dependent conversion of tegafur to 5-fluorouracil in human liver microsomes” (Pharmacology Research & Perspectives, 2013).
# Several values for one entry are separate records, joined by “and”; a condition that tells them apart may be missing. Equal values may be shown once.
# Legend:
# [1] = 5-FU formation from FT enantiomers in pooled human hepatic cytosol; assay type: in vitro ADME
# Protocol: (§1) (pooled preparations from 20 donors; Kansas City, KS). […] Insect microsomes expressing only NADPH-P450 oxidoreductase and cytochrome b5 were also used as control. These enzymes were stored at −80°C until use.
# 5-FU formed from FT was subjected to extensive metabolism by dihydropyrimidine dehydrogenase (DPD) contaminating human hepatic preparations. Therefore, a potent DPD inhibitor, CDHP, was always added to avoid the unexpected loss of 5-FU (Ikeda et al. [2000]; Yamamiya et al. [2010]). Incubation mixture for hepatic microsomal metabolism contained FT, microsomes (1 mg protein/mL), 0.1 mmol/L CDHP, and an NADPH-generating system consisting of 1.3 mmol/L β-NADP^+, 3.3 mmol/L glucose-6-phosphate, 3.3 mmol/L magnesium chloride, and 0.4 units glucose-6-phosphate dehydrogenase in 100 mmol/L Tris (pH 7.4). Metabolic reaction by S9 and cytosol (each 2 mg protein/mL) was carried out in 100 mmol/L phosphate (pH 7.4) because TPase requires phosphate ions for catalyzing the reaction. […] The spontaneous degradation of FT to 5-FU was evaluated using enzymes inactivated by heating them at 100°C for 5 min.
# Concentration of 5-FU was determined using a LC/MS/MS system. […] For quantification of 5-FU, the calibration curves were linear over the range 2–1000 ng/mL. […]
# [2] = molecular target: T1, CYP1A2 (Homo sapiens, UniProt P05177); test: 5-FU formation from FT enantiomers by cDNA-expressed CYP1A2 (kinetics, velocity, RAF contribution); assay type: in vitro ADME; settings: for CYP contribution: CYP1A2, RAF method, 30 μmol/L
# T1 construct: purchased BD Gentest; host or cells: insect cells (baculovirus)
# T1 sequence (P05177 2-516 limits assumed): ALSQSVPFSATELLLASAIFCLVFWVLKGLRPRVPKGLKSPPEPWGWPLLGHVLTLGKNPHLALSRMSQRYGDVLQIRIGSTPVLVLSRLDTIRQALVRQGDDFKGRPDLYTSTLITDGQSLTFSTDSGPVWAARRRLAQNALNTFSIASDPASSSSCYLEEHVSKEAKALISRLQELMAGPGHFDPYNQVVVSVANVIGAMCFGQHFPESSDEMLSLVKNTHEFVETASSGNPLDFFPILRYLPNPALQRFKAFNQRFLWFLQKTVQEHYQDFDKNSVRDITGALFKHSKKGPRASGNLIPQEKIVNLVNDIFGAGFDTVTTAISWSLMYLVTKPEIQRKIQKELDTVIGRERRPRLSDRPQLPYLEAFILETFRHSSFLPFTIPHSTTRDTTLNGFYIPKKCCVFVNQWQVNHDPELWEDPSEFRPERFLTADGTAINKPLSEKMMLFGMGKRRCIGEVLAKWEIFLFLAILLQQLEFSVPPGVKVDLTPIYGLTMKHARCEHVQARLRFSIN
# Protocol: as §1
# (§2) 5-FU formed from FT was subjected to extensive metabolism by dihydropyrimidine dehydrogenase (DPD) contaminating human hepatic preparations. Therefore, a potent DPD inhibitor, CDHP, was always added to avoid the unexpected loss of 5-FU (Ikeda et al. [2000]; Yamamiya et al. [2010]). Incubation mixture for hepatic microsomal metabolism contained FT, microsomes (1 mg protein/mL), 0.1 mmol/L CDHP, and an NADPH-generating system consisting of 1.3 mmol/L β-NADP^+, 3.3 mmol/L glucose-6-phosphate, 3.3 mmol/L magnesium chloride, and 0.4 units glucose-6-phosphate dehydrogenase in 100 mmol/L Tris (pH 7.4). Metabolic reaction by S9 and cytosol (each 2 mg protein/mL) was carried out in 100 mmol/L phosphate (pH 7.4) because TPase requires phosphate ions for catalyzing the reaction. In some cases, insect microsomes expressing recombinant CYP isoforms (20 pmol/mL) were added to the incubation mixtures in either 50, 100 mmol/L phosphate (pH 7.4) or 100 mmol/L Tris (pH 7.4), depending on supplier's recommendation. […] The reaction for the assay of FT metabolism was initiated by adding the substrate, following preincubation for 5 min at 37°C. […] The incubation times of microsomes, cytosol, and S9 were 15, 15, and 30 min, respectively. After centrifugation, the supernatant was collected and stored at −80°C until the determination of 5-FU. Because a small portion of FT is nonenzymatically converted to 5-FU, the content of 5-FU spontaneously formed was subtracted from total yield obtained after incubation to correct the activity. The spontaneous degradation of FT to 5-FU was evaluated using enzymes inactivated by heating them at 100°C for 5 min.
# (§3) Concentration of 5-FU was determined using a LC/MS/MS system. […] The mobile phase consisted of 10 mmol/L ammonium acetate/acetonitrile 10:90 (v/v). The MS/MS analysis was performed in negative ionization mode under multiple reaction monitoring (MRM) mode, using mass transitions, m/z 128.6/41.8 for 5-FU and m/z 130.6/42.8 for ^15N2-5-FU, an internal standard (IS). […] For quantification of 5-FU, the calibration curves were linear over the range 2–1000 ng/mL.
# (§4) In determining kinetic parameters, FT concentration ranged from 0.03 to 10 mmol/L. All reactions were performed in a linear range of 5-FU formation with respect to protein or CYP concentrations and incubation time. Eadie–Hofstee plot analysis was used to characterize enzyme kinetics in which kinetic parameters were estimated by fitting the data to the following equations (1) or (2): [drawing 1] (1) [drawing 2] (2) where V is 5-FU formation rate, S is FT concentration in the incubation mixture, Km1 and Km2 are affinity constants for high- and low-affinity components, respectively, and Vmax1 and Vmax2 are maximum velocities for high- and low-affinity components, respectively.
# The contribution of CYPn to the metabolism of R- and S-FT at their concentration of 30 μmol/L was subsequently calculated using equation (4). [drawing 4] (4) VCYPn = 5-FU formation rate in cDNA-expressed CYPn.
# [3] = design: method as in Damle et al. [2001]; settings: ref Damle et al. [2001], cited from earlier work; for maximum concentration (Cmax) / Cmax: cancer patients after oral administration of UFT; for Cmax: read-out: maximum concentration (Cmax); for area under the plasma concentration–time curve / plasma elimination half-life: cancer patients orally given FT
# [4] = 5-FU formation from FT enantiomers in human hepatic microsomes (kinetic analysis, formation rate); assay type: in vitro ADME; settings: for Km1 / Vmax1 / CLint1: high-affinity component; for CLint1: Vmax/Km; for Km2 / Vmax2: low-affinity component; for Km / Vmax: monophasic kinetics
# Protocol: as §1, §2, §3, §4
# [5] = Mean ± SD of five human livers, total (for R-FT sum of high- and low-affinity components)
# [6] = human hepatic microsomes, higher
# [7] = microsomes HG32, total (for R-FT sum of high- and low-affinity components)
# [8] = microsomes HH31, total (for R-FT sum of high- and low-affinity components)
# [9] = microsomes HH74, total (for R-FT sum of high- and low-affinity components)
# [10] = microsomes HH94, total (for R-FT sum of high- and low-affinity components)
structure (smiles),measurement,setting,value
O=c1[nH]c(=O)n([C@H]2CCCO2)cc1F [R-FT],Vmax,[1],761 pmol/min/mg
same,Km,[1]; read-out: apparent Km,26000 µM
same,CYP contribution,[2],7.5%
same,CLint,[2]; cDNA-expressed CYP1A2,4.9 nL min^−1 pmol^−1 CYP
same,Km,[2]; cDNA-expressed CYP1A2,1100 ± 100 µM
same,Vmax,[2]; cDNA-expressed CYP1A2,5.6 ± 0.3 pmol min^−1 pmol^−1 CYP
same,maximum concentration (Cmax),[3],2957 ng/mL
same,Cmax,[3],14.8 µM
same,area under the plasma concentration–time curve,[3],"10,800 ng h/mL"
same,plasma elimination half-life,[3],2.4 h
same,Km1,[4]; Mean ± SD of five human livers,0.12 mmol/L and 0.12 ± 0.03 mmol/L
same,Vmax1,[4]; Mean ± SD of five human livers,838 ± 669 pmol/min/mg
same,CLint1,[4]; Mean ± SD of five human livers,6.2 ± 4.4 µL/min/mg
same,CLint,[4]; [5],6.4 ± 4.4 µL/min/mg
same,Km2,[4]; Mean ± SD of human livers,2.7 mmol/L and 2.7 ± 0.3 mmol/L
same,Vmax2,[4]; Mean ± SD of human livers,613 ± 236 pmol/min/mg
same,CLint (Vmax/Km) of high-affinity component compared with the low-affinity one,[4]; [6],approximately 27 fold
same,CLint value of R-FT relative to that of S-FT,[4]; [6],8.8 fold
same,Km1,[4]; microsomes HG32,0.11 mmol/L
same,Vmax1,[4]; microsomes HG32,355 pmol/min/mg
same,CLint1,[4]; microsomes HG32,3.2 µL/min/mg
same,Km2,[4]; microsomes HG32,3.0 mmol/L
same,Vmax2,[4]; microsomes HG32,302 pmol/min/mg
same,CLint,[4]; [7],3.3 µL/min/mg
same,Km1,[4]; microsomes HH31,0.14 mmol/L
same,Vmax1,[4]; microsomes HH31,1816 pmol/min/mg
same,CLint1,[4]; microsomes HH31,13 µL/min/mg
same,Km2,[4]; microsomes HH31,2.9 mmol/L
same,Vmax2,[4]; microsomes HH31,859 pmol/min/mg
same,CLint,[4]; [8],13 µL/min/mg
same,Km1,[4]; microsomes HH74,0.093 mmol/L
same,Vmax1,[4]; microsomes HH74,146 pmol/min/mg
same,CLint1,[4]; microsomes HH74,1.6 µL/min/mg
same,Km2,[4]; microsomes HH74,2.7 mmol/L
same,Vmax2,[4]; microsomes HH74,709 pmol/min/mg
same,CLint,[4]; [9],1.8 µL/min/mg
same,Km1,[4]; microsomes HH81,0.16 mmol/L
same,Vmax1,[4]; microsomes HH81,1162 pmol/min/mg
same,CLint1,[4]; microsomes HH81,7.1 µL/min/mg
same,CLint,"[4]; microsomes HH81, total",7.1 µL/min/mg
same,Km1,[4]; microsomes HH94,0.12 mmol/L
same,Vmax1,[4]; microsomes HH94,712 pmol/min/mg
same,CLint1,[4]; microsomes HH94,6.1 µL/min/mg
same,Km2,[4]; microsomes HH94,2.3 mmol/L
same,Vmax2,[4]; microsomes HH94,583 pmol/min/mg
same,CLint,[4]; [10],6.4 µL/min/mg
same,contribution of the high-affinity component to the conversion to 5-FU,[4]; substrate concentration well below the Km value,over 90%
O=c1[nH]c(=O)n([C@@H]2CCCO2)cc1F [S-FT],CYP contribution,[2],4.4%
same,Km,[2]; cDNA-expressed CYP1A2,> 10000 µM
same,maximum concentration (Cmax),[3],3788 ng/mL
same,Cmax,[3],18.9 µM
same,area under the plasma concentration–time curve,[3],"49,300 ng h/mL"
same,plasma elimination half-life,[3],10.3 h
same,Km,[4]; Mean ± SD of five human livers,1600 ± 600 µM
same,Vmax,[4]; Mean ± SD of five human livers,1021 ± 692 pmol/min/mg
same,CLint,[4]; [5],0.73 ± 0.53 µL/min/mg
same,Km,[4]; microsomes HG32,1400 µM
same,Vmax,[4]; microsomes HG32,468 pmol/min/mg
same,CLint,[4]; [7],0.34 µL/min/mg
same,Km,[4]; microsomes HH31,1400 µM
same,Vmax,[4]; microsomes HH31,2205 pmol/min/mg
same,CLint,[4]; [8],1.6 µL/min/mg
same,Km,[4]; microsomes HH74,2600 µM
same,Vmax,[4]; microsomes HH74,583 pmol/min/mg
same,CLint,[4]; [9],0.23 µL/min/mg
same,Km,[4]; microsomes HH81,1100 µM
same,Vmax,[4]; microsomes HH81,915 pmol/min/mg
same,CLint,"[4]; microsomes HH81, total",0.81 µL/min/mg
same,Km,[4]; microsomes HH94,1300 µM
same,Vmax,[4]; microsomes HH94,936 pmol/min/mg
same,CLint,[4]; [10],0.71 µL/min/mg
